The target in experiment [1] is T1, hNav1.7 (Homo sapiens (Human), UniProt Q15858). The experiment in a line: Tritiated compound binding to membranes from cells expressing hNav1.7 and the β1 subunit, modified protocol (LBA, Ex. 243B). To be noted: 300 pM [3H]compound, room temperature, read-out: Nav1.7 LBA (Ex. 243B) IC50.
Target sequence in this assay (Q15858 whole entry, looked up): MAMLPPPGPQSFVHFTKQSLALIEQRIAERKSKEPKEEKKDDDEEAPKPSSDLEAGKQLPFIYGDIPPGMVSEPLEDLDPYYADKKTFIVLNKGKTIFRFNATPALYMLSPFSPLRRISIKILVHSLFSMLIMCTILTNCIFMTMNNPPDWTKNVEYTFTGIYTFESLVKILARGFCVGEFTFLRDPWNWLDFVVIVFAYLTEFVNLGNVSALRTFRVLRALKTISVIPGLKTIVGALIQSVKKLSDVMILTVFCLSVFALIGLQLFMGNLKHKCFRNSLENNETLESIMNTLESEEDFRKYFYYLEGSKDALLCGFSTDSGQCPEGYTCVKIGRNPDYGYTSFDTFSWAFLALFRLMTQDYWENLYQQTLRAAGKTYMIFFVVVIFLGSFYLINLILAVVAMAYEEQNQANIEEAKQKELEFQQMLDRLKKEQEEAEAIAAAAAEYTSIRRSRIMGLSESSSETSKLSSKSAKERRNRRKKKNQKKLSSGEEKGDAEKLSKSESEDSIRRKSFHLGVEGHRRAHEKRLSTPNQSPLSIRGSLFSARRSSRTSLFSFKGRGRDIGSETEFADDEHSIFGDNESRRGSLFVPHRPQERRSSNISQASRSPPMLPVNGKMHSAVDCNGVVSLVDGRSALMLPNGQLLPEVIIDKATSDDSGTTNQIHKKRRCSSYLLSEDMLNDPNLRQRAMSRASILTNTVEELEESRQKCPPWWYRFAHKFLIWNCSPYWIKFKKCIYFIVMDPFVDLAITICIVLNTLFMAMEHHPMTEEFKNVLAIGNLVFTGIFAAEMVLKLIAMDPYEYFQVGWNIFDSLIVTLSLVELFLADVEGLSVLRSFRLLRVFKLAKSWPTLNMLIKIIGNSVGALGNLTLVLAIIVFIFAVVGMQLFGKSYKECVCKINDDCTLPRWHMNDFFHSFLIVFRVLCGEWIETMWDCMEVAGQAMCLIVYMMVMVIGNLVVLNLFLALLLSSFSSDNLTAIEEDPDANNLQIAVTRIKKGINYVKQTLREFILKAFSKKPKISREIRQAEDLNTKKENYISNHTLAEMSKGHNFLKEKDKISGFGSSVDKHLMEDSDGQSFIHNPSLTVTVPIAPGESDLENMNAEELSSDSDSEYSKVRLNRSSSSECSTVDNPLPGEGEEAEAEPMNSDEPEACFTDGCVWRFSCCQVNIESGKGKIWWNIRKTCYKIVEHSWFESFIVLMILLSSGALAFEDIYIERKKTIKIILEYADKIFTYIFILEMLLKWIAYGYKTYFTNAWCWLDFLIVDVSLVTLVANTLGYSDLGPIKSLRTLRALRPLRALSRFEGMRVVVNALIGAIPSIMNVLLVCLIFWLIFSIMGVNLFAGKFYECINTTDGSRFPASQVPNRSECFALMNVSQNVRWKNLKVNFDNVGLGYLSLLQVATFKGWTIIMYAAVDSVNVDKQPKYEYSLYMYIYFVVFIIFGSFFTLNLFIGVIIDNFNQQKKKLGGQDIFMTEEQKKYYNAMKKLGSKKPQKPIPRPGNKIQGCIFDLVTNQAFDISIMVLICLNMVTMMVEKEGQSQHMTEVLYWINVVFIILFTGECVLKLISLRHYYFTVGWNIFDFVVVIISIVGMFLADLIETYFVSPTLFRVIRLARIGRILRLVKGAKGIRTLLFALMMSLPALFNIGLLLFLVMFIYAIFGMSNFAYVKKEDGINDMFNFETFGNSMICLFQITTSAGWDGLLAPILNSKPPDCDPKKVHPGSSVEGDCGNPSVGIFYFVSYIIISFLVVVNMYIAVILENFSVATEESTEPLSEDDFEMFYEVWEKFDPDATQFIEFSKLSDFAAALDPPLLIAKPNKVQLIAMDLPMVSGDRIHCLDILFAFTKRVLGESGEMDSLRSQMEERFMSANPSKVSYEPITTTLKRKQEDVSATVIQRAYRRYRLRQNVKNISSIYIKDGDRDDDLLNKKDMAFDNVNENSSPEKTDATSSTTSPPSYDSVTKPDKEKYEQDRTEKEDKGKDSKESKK
Target sequence in this assay (Q07699 whole entry partner, looked up): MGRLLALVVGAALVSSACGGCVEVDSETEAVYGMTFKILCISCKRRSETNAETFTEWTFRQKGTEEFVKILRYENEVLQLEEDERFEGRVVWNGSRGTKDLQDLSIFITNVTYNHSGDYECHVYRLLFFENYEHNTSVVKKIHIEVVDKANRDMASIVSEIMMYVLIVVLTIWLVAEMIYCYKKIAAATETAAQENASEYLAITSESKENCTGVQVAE
Experiment [2] concerns the target T1, hNav1.7. Put plainly: Patch voltage clamp electrophysiology assay (EP), Syncropatch 384PE, CHO cells expressing Nav1.7. To be noted: read-out: EP_SP hNav1.7 (Ex. 243B) IC50. The format is cell-based. The gist of the method:
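Automated whole-cell patch clamp on CHO cells stably expressing human Nav1.7, CsCl/EGTA internal and NMDG/80 mM Na+ external (pH 7.4). From −50 mV holding, −10 mV step, 20 ms recovery at −150 mV, then second −10 mV pulse where block is measured; inhibition after 7.5 min compound incubation.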
Target sequence in this assay (Q15858 other isoform, or with tags, fused parts or gaps): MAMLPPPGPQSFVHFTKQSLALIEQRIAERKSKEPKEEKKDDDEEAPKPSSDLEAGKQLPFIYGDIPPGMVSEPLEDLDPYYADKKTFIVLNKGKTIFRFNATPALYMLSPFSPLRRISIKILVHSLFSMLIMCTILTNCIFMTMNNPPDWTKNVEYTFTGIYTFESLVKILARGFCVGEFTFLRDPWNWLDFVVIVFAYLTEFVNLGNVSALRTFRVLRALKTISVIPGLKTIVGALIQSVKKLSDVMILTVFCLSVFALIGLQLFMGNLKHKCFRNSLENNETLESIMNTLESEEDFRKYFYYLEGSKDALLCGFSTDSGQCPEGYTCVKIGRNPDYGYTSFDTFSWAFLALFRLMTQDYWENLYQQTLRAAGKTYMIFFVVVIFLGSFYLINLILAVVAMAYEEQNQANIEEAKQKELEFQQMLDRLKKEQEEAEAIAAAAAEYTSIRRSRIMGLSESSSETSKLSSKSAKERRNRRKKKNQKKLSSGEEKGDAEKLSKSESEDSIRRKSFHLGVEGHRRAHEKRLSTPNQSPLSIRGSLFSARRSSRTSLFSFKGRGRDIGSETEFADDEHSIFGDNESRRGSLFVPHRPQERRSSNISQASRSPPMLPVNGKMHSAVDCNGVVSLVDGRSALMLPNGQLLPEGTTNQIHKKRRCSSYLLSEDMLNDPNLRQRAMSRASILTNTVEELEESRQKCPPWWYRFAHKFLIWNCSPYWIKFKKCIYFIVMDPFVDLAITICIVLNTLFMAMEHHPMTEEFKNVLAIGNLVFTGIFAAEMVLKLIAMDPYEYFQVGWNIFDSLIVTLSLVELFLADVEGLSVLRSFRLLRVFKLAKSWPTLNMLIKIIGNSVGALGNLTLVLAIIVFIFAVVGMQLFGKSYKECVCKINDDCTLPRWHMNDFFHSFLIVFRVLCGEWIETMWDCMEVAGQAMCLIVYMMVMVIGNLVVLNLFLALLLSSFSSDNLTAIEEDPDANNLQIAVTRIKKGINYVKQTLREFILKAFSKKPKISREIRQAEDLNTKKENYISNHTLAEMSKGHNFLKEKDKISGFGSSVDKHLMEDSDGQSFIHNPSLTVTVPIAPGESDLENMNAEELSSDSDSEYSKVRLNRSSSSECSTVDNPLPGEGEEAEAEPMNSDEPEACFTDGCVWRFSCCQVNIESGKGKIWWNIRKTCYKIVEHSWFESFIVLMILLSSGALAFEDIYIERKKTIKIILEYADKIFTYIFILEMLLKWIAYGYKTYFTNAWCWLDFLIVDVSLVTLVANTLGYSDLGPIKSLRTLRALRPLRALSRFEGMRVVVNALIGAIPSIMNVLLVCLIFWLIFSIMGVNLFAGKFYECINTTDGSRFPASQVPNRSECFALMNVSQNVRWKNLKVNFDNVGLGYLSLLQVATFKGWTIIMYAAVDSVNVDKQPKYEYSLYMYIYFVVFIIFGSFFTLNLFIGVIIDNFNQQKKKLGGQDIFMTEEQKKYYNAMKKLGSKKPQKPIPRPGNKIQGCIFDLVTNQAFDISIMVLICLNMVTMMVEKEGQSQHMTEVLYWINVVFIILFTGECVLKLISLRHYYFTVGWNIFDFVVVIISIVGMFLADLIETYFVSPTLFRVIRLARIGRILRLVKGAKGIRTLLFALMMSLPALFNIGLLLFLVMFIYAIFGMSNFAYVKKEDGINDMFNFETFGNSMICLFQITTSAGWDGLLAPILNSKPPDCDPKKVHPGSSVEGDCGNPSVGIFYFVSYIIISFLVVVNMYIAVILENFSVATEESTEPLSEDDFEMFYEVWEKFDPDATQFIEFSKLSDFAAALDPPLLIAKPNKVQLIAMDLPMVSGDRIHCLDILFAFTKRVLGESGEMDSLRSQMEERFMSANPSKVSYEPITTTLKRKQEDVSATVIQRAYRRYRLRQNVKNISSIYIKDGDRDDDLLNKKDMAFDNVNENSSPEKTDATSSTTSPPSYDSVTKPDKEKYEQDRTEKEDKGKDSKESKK
In general terms: In patch-clamp work, channel activity is measured electrically.

Setting [3] is: holding potential -50 mV, […] compound incubation.

pIC50: −log10 of the molar value. Structures can show the parent of a compound that is named as a salt.

A word on the pIC50: it is the negative decadic logarithm of the IC50, by convention in mol/L.

As to `N#C[C@H]1CCCN([C@H]2CCCC[C@@H]2Nc2cc(F)c(S(=O)(=O)Nc3nccs3)cc2Cl)C1` [Example 177, 5-chloro-4-(((1S,2S)-2-((S)-3-cyanopiperidin-1-yl)cyclohexyl)amino)-2-fluoro-N-(thiazol-2-yl)benzenesulfonamide], the pIC50 at hNav1.7 [1] was 7.22; at hNav1.7 [2] (setting [3]), 8.54.

Consider `CCCc1cccc([C@H]2CC[C@H](Nc3cc(F)c(S(=O)(=O)Nc4ccncn4)cc3Cl)[C@@H](N(C)C)C2)c1` [Example 223, 5-Chloro-4-(((1S,2S,4S)-2-(dimethylamino)-4-(3-propylphenyl)cyclohexyl)amino)-2-fluoro-N-(pyrimidin-4-yl)benzenesulfonamide], for which the negative-log IC50 (pIC50) at hNav1.7 [1] was 8.01; on hNav1.7 [2] (setting [3]) it was 8.84.

Take `O=S(=O)(Nc1cccc(F)n1)c1cc(Cl)c(N[C@@H]2CCCC[C@H]2N2CCCCC2)cc1F` [Example 117, 5-chloro-2-fluoro-N-(6-fluoropyridin-2-yl)-4-(((1R,2R)-2-(piperidin-1-yl)cyclohexyl)amino)benzenesulfonamide]: the pIC50 at hNav1.7 [1] is 5.65; on hNav1.7 [2] (setting [3]), 6.01.

Take `CN(C)[C@H]1CC2C(C[C@@H]1Nc1cc(F)c(S(=O)(=O)Nc3nccs3)cc1Cl)C2(F)F` (stereo in doubt) [Example 209, 5-Chloro-4-(((1R,3S,4S,6S)-4-(dimethylamino)-7,7-difluorobicyclo[4.1.0]heptan-3-yl)amino)-2-fluoro-N-(thiazol-2-yl)benzenesulfonamide]: the negative-log IC50 (pIC50) on hNav1.7 [1] was 6.80; at hNav1.7 [2] (setting [3]), 8.03.

For the molecule `CN(C)[C@@H]1CC(F)(F)CC[C@H]1Nc1cc(F)c(S(=O)(=O)Nc2nccs2)cc1Cl` [Example 188, 5-chloro-4-(((1R,2R)-2-(dimethylamino)-4,4-difluorocyclohexyl)amino)-2-fluoro-N-(thiazol-2-yl)benzenesulfonamide formate], the figures for the pIC50 at hNav1.7 [1] and on hNav1.7 [2] (setting [3]) were 5.70 and 6.16, respectively.

Take `CN(C)[C@@H]1Cc2ccccc2C[C@H]1Nc1cc(F)c(S(=O)(=O)Nc2nccs2)cc1Cl` [Example 164, 5-Chloro-4-(((2R,3R)-3-(dimethylamino)-1,2,3,4-tetrahydronaphthalen-2-yl)amino)-2-fluoro-N-(thiazol-2-yl)benzenesulfonamide]: the pIC50 at hNav1.7 [1] was 7.27; on hNav1.7 [2] (setting [3]), 8.13.

Regarding `O=S(=O)(Nc1nccs1)c1cc(Cl)c(N[C@H]2CCCC[C@@H]2N2CCC[C@@](F)(CO)C2)cc1F` [Example 213, 5-Chloro-2-fluoro-4-(((1S,2S)-2-((S)-3-fluoro-3-(hydroxymethyl)piperidin-1-yl)cyclohexyl)amino)-N-(thiazol-2-yl)benzenesulfonamide], the pIC50 on hNav1.7 [1] is 6.66; on hNav1.7 [2] (setting [3]) it was 7.86.

As to `O=S(=O)(Nc1nccs1)c1cc(Cl)c(N[C@@H]2CCCC[C@H]2N2CC3CC3C2)cc1F` (stereo partly drawn) [Example 159, 4-(((1R,2R)-2-(3-azabicyclo[3.1.0]hexan-3-yl)cyclohexyl)amino)-5-chloro-2-fluoro-N-(thiazol-2-yl)benzenesulfonamide], the results for the pIC50 at hNav1.7 [1] and on hNav1.7 [2] were 5.75 and 6.69, respectively.

On to `CN1CC[C@H]1C(=O)N(C)[C@H]1CCCC[C@@H]1Nc1cc(F)c(S(=O)(=O)Nc2nccs2)cc1Cl` [Example 202, (S)—N-((1S,2S)-2-((2-chloro-5-fluoro-4-(N-(thiazol-2-yl)sulfamoyl)phenyl)amino)cyclohexyl)-N,1-dimethylazetidine-2-carboxamide], for which the values for the pIC50 on hNav1.7 [1] and at hNav1.7 [2] (setting [3]) were 6.61 and 7.46, respectively.

With “5-chloro-4-(((1S,2S,4S)-4-(3,5-dichlorophenyl)-2-(dimethylamino)cyclohexyl)amino)-2-fluoro-N-(pyrimidin-4-yl)benzenesulfonamide formate [Example 239]”, the pIC50 at hNav1.7 [1] is 8.53; at hNav1.7 [2] (setting [3]), 8.82.

As for `CN(C)[C@H]1Cc2ccccc2C[C@@H]1Nc1cc(F)c(S(=O)(=O)Nc2nccs2)cc1Cl` [Example 165, 5-Chloro-4-(((2S,3S)-3-(dimethylamino)-1,2,3,4-tetrahydronaphthalen-2-yl)amino)-2-fluoro-N-(thiazol-2-yl)benzenesulfonamide], the pIC50 at hNav1.7 [1] is 5.70; on hNav1.7 [2] (setting [3]), 6.29.

Take “5-Chloro-4-(((1S,2S)-2-(cyclobutyl(methyl)amino)cyclohexyl)amino)-2-fluoro-N-(thiazol-2-yl)benzenesulfonamide formate [Example 115]”: the pIC50 on hNav1.7 [1] is 7.74; on hNav1.7 [2] (setting [3]), 8.48.

With `CC(=O)N(C)[C@H]1CCCC[C@@H]1Nc1cc(F)c(S(=O)(=O)Nc2nccs2)cc1Cl` [Example 166, N-((1S,2S)-2-((2-Chloro-5-fluoro-4-(N-(thiazol-2-yl)sulfamoyl)phenyl)amino)cyclohexyl)-N-methylacetamide], the results for the pIC50 at hNav1.7 [1] and at hNav1.7 [2] (setting [3]) were 6.47 and 7.86, respectively.

For `CCN(C)[C@H]1CCCC[C@@H]1N1CCOc2cc(S(=O)(=O)Nc3nccs3)c(F)cc21` (racemic) [Example 189, 4-((trans)-2-(ethyl(methyl)amino)cyclohexyl)-6-fluoro-N-(thiazol-2-yl)-3,4-dihydro-2H-benzo[b][1,4]oxazine-7-sulfonamide], the pIC50 on hNav1.7 [1] was 6.52; at hNav1.7 [2] (setting [3]) it was 7.63.

`CN(C)[C@H]1CC=CC[C@@H]1Nc1cc(F)c(S(=O)(=O)Nc2nccs2)cc1Cl` [Example 141, 5-Chloro-4-(((1S,6S)-6-(dimethylamino)cyclohex-3-en-1-yl)amino)-2-fluoro-N-(thiazol-2-yl)benzenesulfonamide formate]: the pIC50 at hNav1.7 [1] was 6.56; on hNav1.7 [2] (setting [3]) it was 7.90.

With `CN1CC[C@H](C(=O)N(C)[C@H]2CCCC[C@@H]2Nc2cc(F)c(S(=O)(=O)Nc3nccs3)cc2Cl)C1` [Example 199, (S)—N-((1S,2S)-2-((2-chloro-5-fluoro-4-(N-(thiazol-2-yl)sufamoyl)phenyl)amino)cyclohexyl)-N,1-dimethylpyrrolidine-3-carboxamide], the pIC50 at hNav1.7 [1] was 6.88; at hNav1.7 [2] (setting [3]) it was 7.73.

Consider `CN(C)[C@H]1C[C@@H](c2cccc(C(F)(F)F)c2)CC[C@@H]1Nc1cc(F)c(S(=O)(=O)Nc2ccncn2)cc1C1CC1` [Example 230, 5-Cyclopropyl-4-(((1S,2S,4S)-2-(dimethylamino)-4-(3-(trifluormethyl)phenyl)cyclohexyl)amino)-2-fluoro-N-(pyrimidin-4-yl)benzenesulfonamide formate], for which the pIC50 at hNav1.7 [1] was 9.20; on hNav1.7 [2] (setting [3]) it was 8.82.

Regarding `CN(CCO)[C@H]1C[C@@H](C(F)(F)F)CC[C@@H]1Nc1cc(F)c(S(=O)(=O)Nc2nccs2)cc1Cl` [Example 138, 5-chloro-2-fluoro-4-(((1S,2S,4S)-2-((2-hydroxyethyl)(methyl)amino)-4-(trifluoromethyl)cyclohexyl)amino)-N-(thiazol-2-yl)benzenesulfonamide], the pIC50 was 8.03 at hNav1.7 [1] and 8.49 at hNav1.7 [2] (setting [3]).

Turning to `CN(C)[C@@H]1C[C@H]2C[C@H]2C[C@H]1Nc1cc(F)c(S(=O)(=O)Nc2nccs2)cc1Cl` [Example 217, 5-Chloro-4-(((1S,3R,4R,6R)-4-(dimethylamino)bicyclo[4.1.0]heptan-3-yl)amino)-2-fluoro-N-(thiazol-2-yl)benzenesulfonamide], the pIC50 is 5.92 at hNav1.7 [1] and 6.95 at hNav1.7 [2] (setting [3]).

Take `CN(C)[C@H]1CCC(c2cccc(C(F)(F)F)c2)C[C@@H]1Nc1cc(F)c(S(=O)(=O)Nc2ccncn2)cc1Cl` (stereo in doubt) [Example 121, 5-chloro-4-(((1S,2S,5S)-2-(dimethylamino)-5-(3-(trifluoromethyl)phenyl)cyclohexyl)amino)-2-fluoro-N-(pyrimidin-4-yl)benzenesulfonamide]: the pIC50 at hNav1.7 [1] is 5.93; on hNav1.7 [2] (setting [3]) it was 6.92.

Regarding `CN(C(=O)C(C)(C)N(C)C)[C@H]1CCCC[C@@H]1Nc1cc(F)c(S(=O)(=O)Nc2nccs2)cc1Cl` [Example 198, N-((1S,2S)-2-((2-Chloro-5-fluoro-4-(N-(thiazol-2-yl)sulfamoyl)phenyl)amino)-cyclohexyl)-2-(dimethylamino)-N,2-dimethylpropanamide], the pIC50 is 6.09 on hNav1.7 [1] and 7.18 at hNav1.7 [2] (setting [3]).

Consider `CN(C)[C@H]1C[C@@H](c2cccc(C3CC3)c2)CC[C@@H]1Nc1cc(F)c(S(=O)(=O)Nc2ccncn2)cc1Cl` [Example 219, 5-chloro-4-(((1S,2S,4S)-4-(3-cyclopropylphenyl)-2-(dimethyamino)cyclohexyl)amino)-2-fluoro-N-(pyrimidin-4-yl)benzenesulfonamide], for which the results for the pIC50 on hNav1.7 [1] and at hNav1.7 [2] (setting [3]) were 8.77 and 9.03, respectively.

As to `CN(C)[C@H]1C[C@@H](c2cccc(Cl)c2)CC[C@@H]1Nc1cc(F)c(S(=O)(=O)Nc2ccncn2)cc1Cl` [Example 231, 5-Chloro-4-(((1S,2S,4S)-4-(3-chlorophenyl)-2-(dimethylamino)cyclohexyl)amino)-2-fluoro-N-(pyrimidin-4-yl)benzenesulfonamide formate], the pIC50 is 8.65 at hNav1.7 [1] and 9.03 on hNav1.7 [2] (setting [3]).

For `O=S(=O)(Nc1nccs1)c1cc(Cl)c(N[C@H]2CCCC[C@@H]2N2CCC(O)CC2)cc1F` [Example 131, 5-chloro-2-fluoro-4-(((1 S,2S)-2-(4-hydroxypiperidin-1-yl)cyclohexyl)amino)-N-(thiazol-2-yl)benzenesulfonamide], the figures for the pIC50 at hNav1.7 [1] and at hNav1.7 [2] (setting [3]) were 6.70 and 8.23, respectively.

`CN(CCC#N)[C@H]1CCCC[C@@H]1Nc1cc(F)c(S(=O)(=O)Nc2nccs2)cc1Cl` [Example 125, 5-Chloro-4-(((1S,2S)-2-((2-cyanoethyl)(methyl)amino)cyclohexyl)amino)-2-fluoro-N-(thiazol-2-yl)benzenesulfonamide]: the values for the pIC50 on hNav1.7 [1] and on hNav1.7 [2] (setting [3]) were 6.69 and 8.12, respectively.
